Results reported in US20260325667A1, “TISSUE FACTOR ANTIBODY-DRUG CONJUGATES AND USES THEREOF” (priority 2022, published 2026).
Like-named read-outs stand apart in the source and are kept apart here.

What was measured:
[1] = tested on: A431; test: In vitro cytotoxicity (CellTiter Glo, 5 days), A431; type: cell-based; conditions: controls (FITC-ADC 8 DAR 6.36; FITC-ADC 4 DAR 3.39; free belotecan)
Description: (§1) Various cancer cell lines were plated in 96-well plates (Costar 3610) at a density of 1.5×10^3 cells/well in 100 μL of growth media. The next day, cells were treated with […] of test compounds serially-diluted in media. After incubation at 37° C. with […] for 5 days, viability was measured using the Promega CellTiter Glo® reagent according to the manufacturer's recommendations. GI50 curves were calculated in GraphPad Prism normalized to the payload concentration.

[2] = tested on: HPAF-II; test: In vitro cytotoxicity (CellTiter Glo, 5 days), HPAF-II; type: cell-based; conditions: controls (FITC-ADC 8 DAR 6.36; FITC-ADC 4 DAR 3.39; free belotecan)
Description: as §1

[3] = tested on: BxPC-3; test: In vitro cytotoxicity (CellTiter Glo, 5 days), BxPC-3; type: cell-based; conditions: controls (FITC-ADC 8 DAR 6.36; FITC-ADC 4 DAR 3.39; free belotecan), FITC-ADC 4 value marked *: likely not accurate due to curve shape
Description: as §1

[4] = NHP payload (belotecan) concentration in plasma; type: in vivo, cynomolgus monkeys; conditions: cynomolgus, ADC dosed q3wX2
Description: To assess toxicity of the TF-ADCs, female cynomolgus (“cyno”) monkeys (n=2 per group) were treated via IV bolus with test articles at the doses indicated in the table below on days 1 and 22 (q3wX2). All monkeys that survived until day 43 of the study underwent euthanasia for necropsy and anatomic pathology evaluation. Clinical observations, ECG, eye exams, clinical and anatomic pathology, and TK analysis were performed.
Further, payload concentrations in plasma of cyno treated with various dosages of TF-ADC 6-4 and TF-ADC 6-8 were evaluated and the data is shown in FIGS. 14A and 14B. […] The plasma level of belotecan was low relative to ADCs and total antibody with a molar ratio (AUC0-21d) ranging from 169 to 519 for TF-ADC 6-4 and 130 to 156 for TF-ADC 6-8. TF-ADC 6-4 had approximately 2-fold higher belotecan compared to TF-ADC 6-8 for the same dose level. […] Belotecan's apparent half-life ranged between 3 to 6 days (Formation rate-limited).

[5] = tested on: A431; test: ATP release from treated tumor cells (RealTimeGlo); type: cell-based; conditions: TF+ tumor cell line, e.g.
Description: (§2) Tumor cell treatment: Tumor cells (such as A431 or SKOV-3) were trypsinized by washing with PBS, then 3 mL of TrypLE express was added to each T75 flask and incubated for 3-5 minutes at 37° C. DMEM containing 10% FBS (Gibco) was added to each flask to gently wash cells. Cells were then transferred to a conical tube and centrifuged at 1000RPM for 5 minutes and resuspended in fresh medium. Cells were counted and the cell concentration was adjusted to 10,000 cells per 80 μL. Cells were plated at 80 μL per well and incubated at 37° C., 5% CO2 for 5 hours to allow cells to adhere to the plate surface. 5× dilutions of treatment compounds were made in medium. 20 µL of treatment were added to each well and mixed gently and incubated at 37° C., 5% CO2. Belotecan, MMAE, and a benchmark ADC (also referred to herein as BM ADC, CAS 1418731-10-8 and INN 10148) were also tested in parallel and served as additional controls.
(§3) ICD molecule, such as ATP and HMGB1, readouts were performed as follows. For ATP release measurement, Promega RealTimeGlo extracellular ATP assay kit (Promega, Cat #GA5010) was used according to the manufacturer's instructions. […] ATP release was measured beginning 24 hours after treatment with readings every 10 minutes on a Spectramax i3× with temperature control at 37° C. […] HMGB1 release was measured at 48- and 72-hours post-treatment.

[6] = tested on: A431; test: HMGB1 release from treated tumor cells (Lumit); type: cell-based; conditions: TF+ tumor cell line, e.g.
Description: as §2, §3

[7] = read-out: IC50 - drug concentration
[8] = read-out: IC50 - mAb concentration

With `CC[C@@]1(O)C(=O)OCc2c1cc1n(c2=O)Cc2c-1nc1ccccc1c2CCNC(C)C` [belotecan] the IC50 ([1]; Homo sapiens, A-431, 120 h, FITC-ADC 4 value marked *: likely not accurate due to curve shape, read-out: IC50 - mAb concentration) was 2.36 nM, the IC50 ([1]; Homo sapiens, A-431, 120 h, read-out: IC50 - drug concentration) was 2.36 nM and the IC50 ([1]; FITC-ADC 4 value marked *: likely not accurate due to curve shape, read-out: IC50 - mAb concentration) was 2.62 nM. It also gave an IC50 [1, 7] of 2.62 nM, an IC50 ([2]; Homo sapiens, 120 h, read-out: IC50 - drug concentration) of 3.04 nM and an IC50 ([2]; Homo sapiens, 120 h, read-out: IC50 - mAb concentration) of 3.04 nM. For the same compound, the IC50 [2, 7] was 2.45 nM, the IC50 [2, 8] was 2.45 nM and the IC50 ([3]; Homo sapiens, BXPC-3, 120 h, read-out: IC50 - drug concentration) was 2.62 nM. For the same compound, the IC50 ([3]; Homo sapiens, BXPC-3, 120 h, read-out: IC50 - mAb concentration) was 2.62 nM, the IC50 [3, 7] was 2.56 nM and the IC50 [3, 8] was 2.56 nM. The accumulation of payload [4] was “Minimal accumulation of payload was observed”, the ATP release [5] was “induced the release” and the HMGB1 release [6] was “induced the release”.
